This note sets out measurements from patent publication US8772235B2, “Compounds having peptides conjugated to bone targeting moieties and methods of making and using thereof” (The Governors of the University of Alberta, priority 2009, dated 2014).

Series [1] concerns RAW 264.7 cells. Description: MTT cytotoxicity on osteoclast precursor RAW 264.7 cells (SMCC series). Format: cell-based. As to conditions: 100, 500 and 1000 nM sCT or equivalent, 4 hrs. The protocol:
RAW 264.7 cells (ATCC VA, USA) were seeded on 96 well plates at an initial density of 2×10^4 cells/well and incubated in 200 μl GIBCO High Glucose 1× Dulbecco's Modified Eagle Medium (DMEM) (Invitrogen CA, USA) supplemented with 4.5 g/L D-Glucose, L-Glutamine, 110 mg/L Sodium Pyruvate, 10% heat inactivated fetal bovine serum (FBS) and 1% Penicillin-Streptomycin (10000 U/mL; Invitrogen) in a Thermo Fisher Scientific Water Jacketed CO2 incubator (37° C., 5% CO2).
After 72 hrs, media was replaced by 200 μl basic DMEM media without FBS and incubated for 30 minutes. […] After removing the supernatant and washing twice with phosphate buffer saline, purple formazan crystals formed were dissolved in 200 μl solubilization solution (in vitro toxicology assay kit, # TOX-1, Sigma Aldrich, St. Louis, USA) and the absorbance was measured at 570 nm using microplate reader. Experiment was performed for n=8 and the absorbance of wells containing cells without sCT treatment was considered as 100% viable and used to calculate the relative viability of sCT treated cells.
In MTT assay, mitochondrial dehydrogenases of viable cells cleave the tetrazolium ring of MTT yielding purple formazan crystals which are insoluble in aqueous solutions. They were dissolved in acidified isopropanol and the resulting purple solution was measured spectrophotometrically. […]

The nature of series [2]: Effect on plasma calcium level in normal rats (PEG series). Format: in vivo, rat. The conditions noted are these: 20 IU sCT/kg equivalent, subcutaneous. The protocol:
Pharmacodynamic response of sCT analogue was evaluated by analyzing plasma calcium concentration in the rat model. Sprague Dawley female rats weighing 230-260 g (about 6 weeks old) were purchased from Charles River, USA and housed at the University of Alberta Animal Holding Unit. All experimental protocols were approved by the Animals Ethics Committee of the University of Alberta. The rats were divided randomly into five groups of 3 animals each and the pharmacodynamic response was assessed following subcutaneous administration of the sCT or analogue equivalent to 20 IU sCT/kg body weight. Rats were anesthetized using Isoflurane inhalation anesthesia and the 200 μl blood samples were obtained in heparinized Eppendorf microtubes before drug injection. Then 100 μl of sCT or equivalent dose in 20 mM Sodium Acetate buffer pH 5 was injected and the blood samples were collected 1, 2, 3 and 4 hrs post injection from jugular vein. Blood plasma was obtained by centrifuging the samples at 5000 rpm for 10 min and collecting the supernatant. Plasma calcium level was assayed by QuantiChrom™ Calcium Assay Kit (BioAssay Systems, CA USA) and the plasma phosphate level was assayed by QuantiChrom™ Phosphate Assay Kit (BioAssay Systems, CA USA).

For the substance “Salmon calcitonin [sCT, reference compound]”, the “cytotoxicity (absorbance of formazan solution) compared to untreated media” value in series [1] is given as “low levels of cytotoxicity”. The “percentage of plasma calcium reduction” value came out at 33.1±2.1% in series [2] (4 hour post dosing); 20.4±5.5% in series [2] (first hour, vs acetate buffer controls); 29.9±4.9% in series [2] (second hour).
